Tests used:
[1] = in vivo; cited from earlier work
[2] = system: Mycobacterium tuberculosis Erdman (ATCC 35801); assay: anti-tuberculosis activity on a model of mice infected with Mycobacterium tuberculosis (acute tuberculosis infection); settings: Rifalazil 2.5 mg/kg/day intraperitoneally, 3 week administration, BALB/c mice
[3] = system: gram-positive microorganisms; settings: many gram-positive microorganisms; cited from earlier work
gram-negative bacteria = settings: a large number of gram-negative bacteria; cited from earlier work
[4] = system: tuberculosis Mycobacterium; settings: cited from earlier work
Streptococcus pyogenes = Streptococcus pyogenes resistant to penicillin and other antibiotics; cited from earlier work
[5] = system: intracellular Mycobacterium tuberculosis; settings: cited from earlier work

For Rifalazil, the half-life of elimination [1] is listed as greater than 100 h and the “Lowering of micobacterium titers in mice lungs in comparison with the control (CMC) on the 31 day” value [2] is listed as 87 times.
In the case of `CO[C@H]1/C=C/O[C@@]2(C)Oc3c(C)c(O)c4c(O)c(c(/C=N/N5CCN(C)CC5)c(O)c4c3C2=O)NC(=O)/C(C)=C\C=C\[C@H](C)[C@H](O)[C@@H](C)[C@@H](O)[C@@H](C)[C@H](OC(C)=O)[C@@H]1C` [Rifampicin], the minimal inhibiting concentration [3] is listed as 1 to 100 ng/mL, the minimal inhibiting concentration (gram-negative bacteria) is listed as 1000 to 10000 ng/mL and the minimal inhibiting concentration [4] is listed as 5 to 500 ng/mL. The “share of Streptococcus pyogenes sensitive” value (Streptococcus pyogenes) was “Over 95%”.
For `CO[C@H]1/C=C/O[C@@]2(C)Oc3c(C)c(O)c4c(c3C2=O)C2=NC3(CCN(CC(C)C)CC3)NC2=C(NC(=O)/C(C)=C\C=C\[C@H](C)[C@H](O)[C@@H](C)[C@@H](O)[C@@H](C)[C@H](OC(C)=O)[C@@H]1C)C4=O` [Rifabutin], the “active concentration relative to Rifampicin” value [5] is listed as 2 times less.

From patent US9381201B2, “Pharmaceutical composition and kit for treating bacterial infections” (priority 2011, dated 2016)
